Experimental data as given in the supplement of paper PMC10307832.

Columns and labels:
Experiment in all cases: relative viability (nuclei count vs DMSO), 5 days (fraction); higher = more cells survive
XMD14-99 + OSI-027 = compound: CN1CCN(CC1)C2=CC(=C(C=C2)NC3=NC(=C(S3)C(=O)C4=C(C=CC=C4Cl)Cl)N)OC [XMD14-99] + COc1cccc2cc(-c3nc([C@H]4CC[C@H](C(=O)O)CC4)n4ncnc(N)c34)[nH]c12 [OSI-027] (partner 0.5 µM)
Procedure, shortened: (§1)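 Relative viability divides the nuclei count in treated wells by that in vehicle wells. Lung cancer cell lines were seeded in 1536-well plates, dosed by pin tool the next day, and fixed and stained after 5 days in one step with final 0.05% Triton X-100, 1% formaldehyde and 1 ug/ml Hoechst. Dosing was a single drug or a fixed anchor-drug dose plus five library-drug doses (not always all listed) in √10 steps, and values are medians of duplicate plates imaged at 4×.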

XMD14-99 + Phenformin = compound: CN1CCN(CC1)C2=CC(=C(C=C2)NC3=NC(=C(S3)C(=O)C4=C(C=CC=C4Cl)Cl)N)OC [XMD14-99] + N=C(N)NC(=N)NCCc1ccccc1 [Phenformin] (partner 250 µM)
Procedure, shortened: as §1

XMD14-99 + Linsitinib = compound: CN1CCN(CC1)C2=CC(=C(C=C2)NC3=NC(=C(S3)C(=O)C4=C(C=CC=C4Cl)Cl)N)OC [XMD14-99] + C[C@]1(O)C[C@@H](c2nc(-c3ccc4ccc(-c5ccccc5)nc4c3)c3c(N)nccn32)C1 [Linsitinib] (partner 1 µM)
Procedure, shortened: as §1

AZD1208 + Luminespib = compound: N[C@@H]1CCCN(c2c(/C=C3\SC(=O)NC3=O)cccc2-c2ccccc2)C1 [AZD1208] + CCNC(=O)c1noc(-c2cc(C(C)C)c(O)cc2O)c1-c1ccc(CN2CCOCC2)cc1 [Luminespib] (partner 0.01 µM)
Procedure, shortened: as §1

| Cell Line | relative viability (XMD14-99 + OSI-027; first compound 0.08 µM) | relative viability (XMD14-99 + OSI-027; first compound 0.8 µM) | relative viability (XMD14-99 + OSI-027; first compound 2.53 µM) | relative viability (XMD14-99 + OSI-027; first compound 8 µM) | relative viability (XMD14-99 + Phenformin; first compound 0.08 µM) | relative viability (XMD14-99 + Phenformin; first compound 0.8 µM) | relative viability (XMD14-99 + Phenformin; first compound 2.53 µM) | relative viability (XMD14-99 + Phenformin; first compound 8 µM) | relative viability (XMD14-99 + Linsitinib; first compound 0.08 µM) | relative viability (XMD14-99 + Linsitinib; first compound 0.8 µM) | relative viability (XMD14-99 + Linsitinib; first compound 2.53 µM) | relative viability (XMD14-99 + Linsitinib; first compound 8 µM) | relative viability (AZD1208 + Luminespib; first compound 0.08 µM) | relative viability (AZD1208 + Luminespib; first compound 0.253 µM) | relative viability (AZD1208 + Luminespib; first compound 0.8 µM) | relative viability (AZD1208 + Luminespib; first compound 2.53 µM) | relative viability (AZD1208 + Luminespib; first compound 8 µM) |
| --- | --- | --- | --- | --- | --- | --- | --- | --- | --- | --- | --- | --- | --- | --- | --- | --- | --- |
| HCC-44 | 0.46 | 0.493 | 0.421 | 0.469 | 0.261 | 0.16 | 0.303 | 0.168 | 0.719 | 0.692 | 0.708 | 0.61 | 0.996 | 1.1 | 0.963 | 1.04 | 1.04 |
| HCC-827 | 0.726 | 0.68 | 0.655 | 0.608 | 0.406 | 0.37 | 0.377 | 0.308 | 0.991 | 0.86 | 0.828 | 0.802 | 0.735 | 0.677 | 0.307 | 0.373 | 0.408 |
| NCI-H1623 | 0.434 | 0.43 | 0.392 | 0.396 | 0.573 | 0.613 | 0.584 | 0.54 | – | – | – | – | 0.444 | 0.393 | 0.365 | 0.324 | 0.372 |
| NCI-H2405 | 0.593 | 0.606 | 0.607 | 0.5 | 0.379 | 0.39 | 0.373 | 0.231 | 0.913 | 0.992 | 0.9 | 0.566 | 0.652 | 0.464 | 0.47 | 0.455 | 0.517 |
| PC-3 [JPC-3] | 0.769 | 0.701 | 0.638 | 0.541 | 0.494 | 0.505 | 0.517 | 0.47 | 1.04 | 0.878 | 0.828 | 0.844 | 0.668 | 0.7 | 0.706 | 0.693 | 0.588 |
| NCI-H1651 | 0.815 | 0.691 | 0.622 | 0.531 | 0.321 | 0.319 | 0.301 | 0.272 | 0.941 | 0.886 | 0.904 | 0.84 | 0.902 | 0.977 | 0.848 | 0.795 | 0.568 |
| HARA | 0.46 | 0.426 | 0.321 | 0.182 | 0.438 | 0.486 | 0.346 | 0.324 | 0.901 | 0.946 | 0.701 | 0.605 | 0.558 | 1.1 | 0.0617 | 0.81 | 0.777 |
| NCI-H1650 | 0.705 | 0.7 | 0.49 | 0.395 | 0.375 | 0.498 | 0.361 | 0.312 | – | – | – | – | 0.208 | 0.151 | 0.188 | 0.211 | 0.204 |
| NCI-H1395 | 0.687 | 0.639 | 0.654 | 0.584 | 0.471 | 0.458 | 0.404 | 0.438 | 1.04 | 1.02 | 0.955 | 0.784 | 0.705 | 0.784 | 0.608 | 0.539 | 0.553 |
| NCI-H1993 | 0.575 | 0.555 | 0.53 | 0.53 | 0.467 | 0.506 | 0.447 | 0.436 | 0.684 | 0.66 | 0.659 | 0.749 | 0.522 | 0.561 | 0.692 | 0.566 | 0.523 |
| LU99A | 0.302 | 0.308 | 0.297 | 0.25 | 0.888 | 0.917 | 0.728 | 0.603 | 0.511 | 0.396 | 0.488 | 0.425 | 0.306 | 0.292 | 0.204 | 0.182 | 0.238 |
| NCI-H1355 | 0.395 | 0.367 | 0.337 | 0.292 | 0.518 | 0.473 | 0.424 | 0.36 | 0.796 | 0.809 | 0.74 | 0.633 | 0.708 | 0.598 | 0.611 | 0.699 | 0.525 |
| HCC-78 | 0.389 | 0.339 | 0.377 | 0.319 | 0.681 | 0.551 | 0.743 | 0.451 | 0.526 | 0.477 | 0.509 | 0.446 | – | – | – | – | – |
| NCI-H1563 | 0.753 | 0.766 | 0.733 | 0.641 | 0.606 | 0.63 | 0.6 | 0.585 | 1.21 | 1.12 | 1.17 | 1.08 | 0.556 | 0.532 | 0.561 | 0.478 | 0.504 |
| HCC-15 | 0.606 | 0.622 | 0.638 | 0.463 | 0.51 | 0.499 | 0.419 | 0.321 | 0.91 | 0.902 | 0.826 | 0.702 | 0.359 | 0.235 | 0.319 | 0.431 | 0.192 |
| EKVX | 0.653 | 0.72 | 0.655 | 0.586 | 0.261 | 0.246 | 0.227 | 0.23 | 1.01 | 1.05 | 0.993 | 0.81 | 0.981 | 0.845 | 0.888 | 0.804 | 0.924 |
| NCI-H2126 | 0.666 | 0.66 | 0.669 | 0.432 | 0.526 | 0.51 | 0.45 | 0.421 | 0.739 | 0.705 | 0.668 | 0.628 | 0.9 | 0.924 | 0.848 | 0.799 | 0.858 |
| LK-2 | 0.19 | 0.182 | 0.162 | 0.179 | 0.363 | 0.368 | 0.423 | 0.215 | 0.398 | 0.369 | 0.659 | 0.471 | 0.17 | 0.187 | 0.2 | 0.184 | 0.17 |
| NCI-H1437 | 0.892 | 0.842 | 0.804 | 0.68 | 0.321 | 0.316 | 0.244 | 0.237 | 0.961 | 0.983 | 0.735 | 0.387 | 1.13 | 1.17 | 1.2 | 1.24 | 1.22 |
